Test results: US12172990B2 (Constellation Pharmaceuticals, Inc., priority 2018, dated 2024)
pIC50: −log10 of the molar value.

Key:
[1] = biological target: human TREX2 (residues M44-A279) (Homo sapiens (Human), UniProt Q9BQ50); experiment: TREX2 Biochemical Assay (fluorescence assay measuring degradation of dsDNA substrate); conditions: 2.5 nM TREX2, 60 nM dsDNA substrate, 25 minutes at room temperature
Summary of the method: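 Final conditions: 2.5 nM His-Tev-tagged TREX2 (E. coli-expressed), 60 nM fluorophore/quencher-labelled dsDNA, 50 mM Tris pH 7.4, 150 mM NaCl, 100 mM MgCl2, 1% DMSO; 10-point compound dose-response. Incubated 25 min at room temperature, then EDTA-quenched; fluorescence read at ex 570/em 615 nm. IC50 from four-parameter fit against pre-quenched and no-inhibitor controls.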

full length human TREX1 = full length human TREX1 (Homo sapiens (Human), UniProt Q9NSU2); experiment: TREX1 Biochemical Assay (fluorescence assay measuring degradation of dsDNA substrate); conditions: 150 pM TREX1, 60 nM dsDNA substrate, 25 minutes at room temperature
Sequence of full length human TREX1 (Q9NSU2 whole entry): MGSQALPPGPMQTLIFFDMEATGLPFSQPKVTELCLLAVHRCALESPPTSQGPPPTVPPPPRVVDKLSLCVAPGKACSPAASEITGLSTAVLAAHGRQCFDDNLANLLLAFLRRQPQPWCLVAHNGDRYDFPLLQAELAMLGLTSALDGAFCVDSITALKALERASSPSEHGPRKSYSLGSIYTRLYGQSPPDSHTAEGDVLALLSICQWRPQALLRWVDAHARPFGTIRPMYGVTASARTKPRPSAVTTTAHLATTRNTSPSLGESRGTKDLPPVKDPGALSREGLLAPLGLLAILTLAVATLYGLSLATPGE
Summary of the method: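 His-Tev-tagged full-length human TREX1 expressed in E. coli, 150 pM final, with 60 nM TEX615/quencher-labelled 9-mer dsDNA in Tris pH 7.4, NaCl, DTT, BSA, Tween-20, MgCl2 and 1.0% DMSO; 25 min at room temperature, EDTA-quenched. Fluorescence 615 nm (excitation 570 nm); 10-point IC50 by four-parameter fit against pre-quenched and no-inhibitor controls.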

Sequence of human TREX2 (residues M44-A279) (Q9BQ50 whole entry, the tested form may be a part): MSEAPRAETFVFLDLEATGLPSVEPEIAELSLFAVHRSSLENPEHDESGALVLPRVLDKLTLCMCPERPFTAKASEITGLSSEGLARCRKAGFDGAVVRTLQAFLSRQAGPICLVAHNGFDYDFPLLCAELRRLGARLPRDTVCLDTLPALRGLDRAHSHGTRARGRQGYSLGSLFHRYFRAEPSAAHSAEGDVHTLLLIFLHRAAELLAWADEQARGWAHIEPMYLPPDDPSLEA

| Structure (SMILES) | pIC50 [1] | pIC50 (full length human TREX1) |
| --- | --- | --- |
| Cn1c(C2CCCN(CC(F)(F)F)C2)nc(C(=O)Nc2cnoc2)c(O)c1=O (stereo not shown) [Example 98, 5-hydroxy-N-(isoxazol-4-yl)-1-methyl-6-oxo-2-(1-(2,2,2-trifluoroethyl)piperidin-3-yl)-1,6-dihydropyrimidine-4-carboxamide] | 4.00 to 5.00 | 6.00 to 7.00 |
| Cn1c(N2CCN(C(=O)c3ccccc3)CC2)nc(C(=O)Nc2cnoc2)c(O)c1=O [Example 100, 2-(4-benzoylpiperazin-1-yl)-5-hydroxy-N-(isoxazol-4-yl)-1-methyl-6-oxo-1,6-dihydropyrimidine-4-carboxamide] | 4.00 to 5.00 | 6.00 to 7.00 |
| Cn1c(N2CCC[C@H](c3ccccn3)C2)nc(C(=O)Nc2cnoc2)c(O)c1=O [Example 101, (S)-5-hydroxy-N-(isoxazol-4-yl)-1-methyl-6-oxo-2-(3-(pyridin-2-yl)piperidin-1-yl)-1,6-dihydropyrimidine-4-carboxamide] | 4.00 to 5.00 | 6.00 to 7.00 |
| Cn1c(N2CCC[C@@H]2c2cccnc2)nc(C(=O)Nc2cnoc2)c(O)c1=O [Example 102, (R)-5-hydroxy-N-(isoxazol-4-yl)-1-methyl-6-oxo-2-(2-(pyridin-3-yl)pyrrolidin-1-yl)-1,6-dihydropyrimidine-4-carboxamide] | 4.00 to 5.00 | 6.00 to 7.00 |
| Cn1c(N2CCC[C@H]2c2ccncc2)nc(C(=O)Nc2cnoc2)c(O)c1=O [Example 103, (S)-5-hydroxy-N-(isoxazol-4-yl)-1-methyl-6-oxo-2-(2-(pyridin-4-yl)pyrrolidin-1-yl)-1,6-dihydropyrimidine-4-carboxamide] | 4.00 to 5.00 | 6.00 to 7.00 |
| Cn1c([C@H]2CCCCN2CCO)nc(C(=O)Nc2cnoc2)c(O)c1=O [Example 104, (R)-5-hydroxy-2-(1-(2-hydroxyethyl)piperidin-2-yl)-N-(isoxazol-4-yl)-1-methyl-6-oxo-1,6-dihydropyrimidine-4-carboxamide] | < 4.00 | 5.00 to 6.00 |
| Cn1c(N2CCCC[C@H]2CCO)nc(C(=O)Nc2cnoc2)c(O)c1=O [Example 106, (S)-5-hydroxy-2-(2-(2-hydroxyethyl)piperidin-1-yl)-N-(isoxazol-4-yl)-1-methyl-6-oxo-1,6-dihydropyrimidine-4-carboxamide] | 4.00 to 5.00 | 6.00 to 7.00 |
| Cn1c(N2CCCC[C@@H]2CCO)nc(C(=O)Nc2cnoc2)c(O)c1=O [Example 107, (R)-5-hydroxy-2-(2-(2-hydroxyethyl)piperidin-1-yl)-N-(isoxazol-4-yl)-1-methyl-6-oxo-1,6-dihydropyrimidine-4-carboxamide] | 5.00 to 6.00 | > 7.00 |
| Cn1c(N2CC[C@H](c3ccccc3)C2)nc(C(=O)Nc2cnoc2)c(O)c1=O [Example 108, (R)-5-hydroxy-N-(isoxazol-4-yl)-1-methyl-6-oxo-2-(3-phenylpyrrolidin-1-yl)-1,6-dihydropyrimidine-4-carboxamide] | 4.00 to 5.00 | > 7.00 |
| Cn1c(N2CC[C@@H](c3ccccc3)C2)nc(C(=O)Nc2cnoc2)c(O)c1=O [Example 109, (S)-5-hydroxy-N-(isoxazol-4-yl)-1-methyl-6-oxo-2-(3-phenylpyrrolidin-1-yl)-1,6-dihydropyrimidine-4-carboxamide] | 4.00 to 5.00 | > 7.00 |
| CN(C)C(=O)[C@H]1CCCN1c1nc(C(=O)Nc2cnoc2)c(O)c(=O)n1C [Example 110, (R)-2-(2-(dimethylcarbamoyl)pyrrolidin-1-yl)-5-hydroxy-N-(isoxazol-4-yl)-1-methyl-6-oxo-1,6-dihydropyrimidine-4-carboxamide] | 4.00 to 5.00 | 6.00 to 7.00 |
| CC(=O)N1CCCN(c2nc(C(=O)Nc3cnoc3)c(O)c(=O)n2C)CC1 [Example 111, 2-(4-acetyl-1,4-diazepan-1-yl)-5-hydroxy-N-(isoxazol-4-yl)-1-methyl-6-oxo-1,6-dihydropyrimidine-4-carboxamide] | 4.00 to 5.00 | 6.00 to 7.00 |
| Cn1c(N2CCC[C@H]2c2ccccc2)nc(C(=O)Nc2cnoc2)c(O)c1=O [Example 112, (S)-5-hydroxy-N-(isoxazol-4-yl)-1-methyl-6-oxo-2-(2-phenylpyrrolidin-1-yl)-1,6-dihydropyrimidine-4-carboxamide] | 5.00 to 6.00 | > 7.00 |

More lines, now with the values ahead:

| pIC50 [1] | pIC50 (full length human TREX1) | Structure (SMILES) |
| --- | --- | --- |
| 5.00 to 6.00 | > 7.00 | Cn1c(N2CCC[C@@H]2c2ccccc2)nc(C(=O)Nc2cnoc2)c(O)c1=O [Example 113, (R)-5-hydroxy-N-(isoxazol-4-yl)-1-methyl-6-oxo-2-(2-phenylpyrrolidin-1-yl)-1,6-dihydropyrimidine-4-carboxamide] |
| 4.00 to 5.00 | 6.00 to 7.00 | CC(=O)N1CCN(c2nc(C(=O)Nc3cnoc3)c(O)c(=O)n2C)CC1 [Example 116, 2-(4-acetylpiperazin-1-yl)-5-hydroxy-N-(isoxazol-4-yl)-1-methyl-6-oxo-1,6-dihydropyrimidine-4-carboxamide] |
| 4.00 to 5.00 | 6.00 to 7.00 | Cn1c(N2CC[C@H](C(N)=O)C2)nc(C(=O)Nc2cnoc2)c(O)c1=O [Example 117, (S)-2-(3-carbamoylpyrrolidin-1-yl)-5-hydroxy-N-(isoxazol-4-yl)-1-methyl-6-oxo-1,6-dihydropyrimidine-4-carboxamide] |
| 4.00 to 5.00 | > 7.00 | Cn1c(N2CC[C@@H](C(N)=O)C2)nc(C(=O)Nc2cnoc2)c(O)c1=O [Example 118, (R)-2-(3-carbamoylpyrrolidin-1-yl)-5-hydroxy-N-(isoxazol-4-yl)-1-methyl-6-oxo-1,6-dihydropyrimidine-4-carboxamide] |
| 4.00 to 5.00 | 6.00 to 7.00 | Cn1c(N2CCC[C@H](C(N)=O)C2)nc(C(=O)Nc2cnoc2)c(O)c1=O [Example 119, (S)-2-(3-carbamoylpiperidin-1-yl)-5-hydroxy-N-(isoxazol-4-yl)-1-methyl-6-oxo-1,6-dihydropyrimidine-4-carboxamide] |
| 5.00 to 6.00 | > 7.00 | Cn1c(Oc2ccccc2)nc(C(=O)Nc2cnoc2)c(O)c1=O [Example 120, 5-hydroxy-N-(isoxazol-4-yl)-1-methyl-6-oxo-2-phenoxy-1,6-dihydropyrimidine-4-carboxamide] |
| 5.00 to 6.00 | > 7.00 | Cn1c(OC2CCCCC2)nc(C(=O)Nc2cnoc2)c(O)c1=O [Example 121, 2-(cyclohexyloxy)-5-hydroxy-N-(isoxazol-4-yl)-1-methyl-6-oxo-1,6-dihydropyrimidine-4-carboxamide] |
| 4.00 to 5.00 | 6.00 to 7.00 | Cn1c(N2CC(Oc3ccccc3)C2)nc(C(=O)Nc2cnoc2)c(O)c1=O [Example 122, 5-hydroxy-N-(isoxazol-4-yl)-1-methyl-6-oxo-2-(3-phenoxyazetidin-1-yl)-1,6-dihydropyrimidine-4-carboxamide] |
| 4.00 to 5.00 | 6.00 to 7.00 | Cn1c(N2CC(OCc3ccccc3)C2)nc(C(=O)Nc2cnoc2)c(O)c1=O [Example 123, 2-(3-(benzyloxy)azetidin-1-yl)-5-hydroxy-N-(isoxazol-4-yl)-1-methyl-6-oxo-1,6-dihydropyrimidine-4-carboxamide] |
| 5.00 to 6.00 | > 7.00 | Cn1c(N2CCC[C@@H]2c2ccccc2Cl)nc(C(=O)Nc2cnoc2)c(O)c1=O [Example 124, (R)-2-(2-(2-chlorophenyl)pyrrolidin-1-yl)-5-hydroxy-N-(isoxazol-4-yl)-1-methyl-6-oxo-1,6-dihydropyrimidine-4-carboxamide] |
